In publication PMC6792352, “Limited Chemical Structural Diversity Found to Modulate Thyroid Hormone Receptor in the Tox21 Chemical Library” (Environmental Health Perspectives, 2019):
Counter-ions that a name gives are not always drawn.

experiment: in vitro; details: rat, gh3-tre-luc cells, AC50 (uM) modified / 1000

SMILES | CC50 at 24 h
O=C(Cl)c1ccc(C(=O)Cl)cc1 [1,4-Benzenedicarbonyl dichloride] | > 90 µM
CCCCCC(C)OC(=O)COc1ccc(Cl)c2cccnc12 (stereo not drawn) [Cloquintocet-mexyl] | 71.4 µM
NC(N)=O [Urea] | > 100 µM
N[C@@H](C(=O)N[C@@H]1C(=O)N2C(C(=O)O)=C(CSc3c[nH]nn3)CS[C@H]12)c1ccc(O)cc1 [Cefatrizine] | > 50 µM
CCCCC(CC)COP(=O)(OCC(CC)CCCC)OCC(CC)CCCC (stereo not drawn) [Tris(2-ethylhexyl) phosphate] | > 90 µM
Cc1c(C)c2c(c(C)c1OC(=O)c1cccnc1)CC[C@@](C)(CCC[C@H](C)CCC[C@H](C)CCCC(C)C)O2 (racemic) [DL-alpha Tocopheryl nicotinate] | > 50 µM
CC(C)C(=O)c1ccccc1 [Isopropyl phenyl ketone] | > 90 µM
CC/C=C\C/C=C\C/C=C\CCCCCCCC(=O)O [Linolenic acid] | > 90 µM
Cc1cc(OI)c(C(C)C)cc1-c1cc(C(C)C)c(OI)cc1C [Thymol iodide] | > 50 µM
Nc1nc2c(ncn2COCCO)c(=O)[nH]1 [Acyclovir] | > 20 µM
O=C(OCCN1CCCCC1)C(O)(c1ccccc1)c1ccccc1 [Piperilate hydrochloride] | > 50 µM
Cc1cc(C(C)(C)C)cc(C)c1CC1=NCCN1 [Xylometazoline hydrochloride] | > 20 µM
COc1ccccc1OCCNCC(O)COc1cccc2[nH]c3ccccc3c12 (stereo not drawn) [Carvedilol tartrate] | 24 µM
O=S(=O)(O)c1cc(O)c(O)c(S(=O)(=O)O)c1 [Tiron] | > 90 µM
CCCCCCCCCC(=O)NO [Decanohydroxamic acid] | > 50 µM
C[N+]1(CCCCC[N+]2(C)CCCC2)CCCC1 [Pentolinium ditartrate] | > 50 µM
O=S(=O)(Oc1ccc(Cl)cc1)c1ccccc1 [Fenson] | > 90 µM
C=CCOC(=O)CCCCCCCC [Allyl nonanoate] | > 90 µM
CC(C)OC(=O)Nc1ccc2[nH]c(-c3cscn3)nc2c1 [Cambendazole] | 4.4 µM
CCC(C)C1N=C(C)C(C)S1 (stereo not drawn) [2-(2-Butyl)-4,5-dimethyl-3-thiazoline] | > 90 µM
CCCCCCc1ccc(-c2ccc(C#N)cc2)cc1 [4-Hexyl-4'-cyanobiphenyl] | > 90 µM
CCOC(=O)c1ccc(OCCN2C[C@H](O)[C@@H](O)[C@H](O)[C@H]2CO)cc1 [Emiglitate] | > 50 µM
NNC(N)=S [Thiosemicarbazide] | > 100 µM
COCCOCCOCCOCCOC [2,5,8,11,14-Pentaoxapentadecane] | > 90 µM
COC(=O)C(c1ccccc1)C1CCCCN1 (stereo not drawn) [Methylphenidate hydrochloride] | > 90 µM

SMILES | CC50 at 24 h
Cc1ccc(C(=O)O)o1 [5-Methyl-2-furancarboxylic acid] | > 90 µM
O=[N+]([O-])c1ccc2[nH]cnc2c1 [6-Nitrobenzimidazole] | > 90 µM
C[C@@H]1CC[C@H]2C(C)(C)C3CC12CC[C@@]3(C)O (single isomer, unassigned; (+)) [(+)-Cedrol] | 71.6 µM
CCCCOC(=O)c1ccccc1C(=O)OCC(CC)CCCC (stereo not drawn) [Butyl 2-ethylhexyl phthalate] | > 90 µM
O=C(CN1CCNCC1)NC1CCCCC1 [Esaprazole] | > 50 µM
CCCC[P+](C)(CCCC)CCCC [Tributylmethylphosphonium methyl sulfate] | > 90 µM
CC(C)(C)[C@H](O)[C@H](Cc1ccc(Cl)cc1)n1cncn1 (racemic) [Paclobutrazol] | > 90 µM
C/C=C/C(=O)O [2-Butenoic acid] | > 90 µM
CCc1oc2ccccc2c1C(=O)c1cc(I)c(O)c(I)c1 [Benziodarone] | 24.8 µM
NC(=O)Cc1cccc2ccccc12 [1-Naphthaleneacetamide] | > 90 µM
CCN(CC)C(=O)N(CC)CC [Tetraethylurea] | > 90 µM
CCC(C)OC(=O)N1CCCCC1CCO (stereo not drawn) [Icaridin] | > 90 µM
CC(=O)Oc1ccc(C)cc1 [4-Tolyl acetate] | > 90 µM
Cc1ccc(N)nc1 [5-Methylpyridin-2-amine] | > 90 µM
CCC(=O)O[C@]1(C(=O)CCl)[C@@H](C)C[C@H]2[C@@H]3CCC4=CC(=O)C=C[C@]4(C)[C@@]3(F)[C@@H](O)C[C@@]21C [Clobetasol propionate] | > 50 µM
C[C@]12CC[C@H]3[C@@H](CCC4=CC(=O)CC[C@@H]43)[C@@H]1CC[C@@H]2O [Nandrolone] | > 90 µM
O=C1c2ccccc2C(=O)C1c1ccc(Cl)cc1 [Clorindione] | > 50 µM
CC1(C)C(/C=C/C=C/C=C/C=C2\N(CCCCS(=O)(=O)O)c3ccc4ccccc4c3C2(C)C)=[N+](CCCCS(=O)(=O)[O-])c2ccc3ccccc3c21 [Indocyanine green] | 19.5 µM
O=C1OC(c2ccc(O)c(S(=O)(=O)O)c2)(c2ccc(O)c(S(=O)(=O)O)c2)c2c(Br)c(Br)c(Br)c(Br)c21 [Sulfobromophthalein] | > 50 µM
C[C@@H](N)C(=O)O [D-Alanine] | > 50 µM
C=CCC1([C@H](C)CCC)C(=O)NC(=O)NC1=O [R-(+)-Secobarbital] | > 90 µM
CCNc1ccccc1 [N-Ethylaniline] | > 90 µM
CN(CC1(C)CCCO1)S(=O)(=O)c1ccc(Cl)c(S(N)(=O)=O)c1 (stereo not drawn) [Mefruside] | > 50 µM
CCN(CC)CCNC(C(=O)OCCC(C)C)c1ccccc1 (stereo not drawn) [Camylofin] | > 50 µM
CCCCCCCC=O [Octanal] | > 90 µM

SMILES | CC50 at 24 h
OC(CCN1CCCCC1)(c1ccccc1)C1CCCCC1 (stereo not drawn) [Trihexyphenidyl hydrochloride] | > 50 µM
CCCCOC(=O)c1ccccc1C(=O)OCCCC [Dibutyl phthalate] | > 90 µM
NC(=O)Cc1cccc(C(=O)c2ccccc2)c1N [Nepafenac] | > 50 µM
C[C@]12C=CC(=O)C=C1CC[C@@H]1[C@@H]2C(=O)C[C@@]2(C)[C@H]1CC[C@]2(O)C(=O)CO [Prednisone] | > 90 µM
O=C1NC(=O)c2ccccc21 [Potassium 1,3-dioxo-1,3-dihydroisoindol-2-ide] | > 90 µM
O=C(O)CN(CCOCCOCCN(CC(=O)O)CC(=O)O)CC(=O)O [Egtazic Acid] | > 50 µM
C=CC(C)(CCC=C(C)C)OC(=O)CC(C)C (stereo not drawn) [Linalyl isovalerate] | > 90 µM
O=C(O)c1ccccc1S [2-Thiosalicylic acid] | > 50 µM
C=CC(=O)OCC(COC(=O)C=C)(COC(=O)C=C)COC(=O)C=C [Pentaerythritol tetraacrylate] | 3 µM
CCCC(Cn1cncn1)c1ccc(Cl)cc1Cl (stereo not drawn) [Penconazole] | 78.4 µM
N#Cc1c(F)cccc1F [2,6-Difluorobenzonitrile] | > 90 µM
Nc1ccc(Oc2ccc(N)cc2)cc1 [4,4'-Oxydianiline] | > 90 µM
O=C(OCC1CO1)C1CCCCC1C(=O)OCC1CO1 (stereo not drawn) [1,2-Cyclohexanedicarboxylic acid, bis(oxiranylmethyl) ester] | 44.7 µM
CC1=CC[C@@H](C(C)(C)O)CC1 [alpha-Terpineol] | > 90 µM
OC(CN1CCCCC1)c1cc(-c2ccccc2)on1 (stereo not drawn) [Perisoxal citrate] | > 50 µM
O=C(NCCc1c[nH]c2ccccc12)c1cccnc1 [Nicotredole] | > 50 µM
Nc1ccccc1-c1ccccc1 [2-Biphenylamine] | > 90 µM
CN(C)CC[C@@H](c1ccc(Cl)cc1)c1ccccn1 [Dexchlorpheniramine hydrochloride] | 24.8 µM
CC(C)=CCC/C(C)=C\CO [(2Z)-3,7-Dimethylocta-2,6-dien-1-ol] | > 90 µM
CN(C)[C@@H]1C(O)=C(C(N)=O)C(=O)[C@@]2(O)C(O)=C3C(=O)c4c(O)cccc4[C@@](C)(O)[C@H]3[C@H](O)[C@@H]12 [Oxytetracycline hydrochloride] | > 90 µM
Cn1cnc2c1c(=O)[nH]c(=O)n2C [Theobromine] | > 40 µM
Nc1ccc(C(=O)O)c(O)c1 [Sodium 4-aminosalicylate] | > 50 µM
CCOC(=O)C(Br)c1ccccc1 (stereo not drawn) [Ethyl bromophenylacetate] | > 90 µM

same assay, conditions: rat, gh3-tre-luc cells, AC50 (uM) modified / 1000, Tox21_110001=Tox21_110766; viability, 1 nM T3 present, 24 h

SMILES | CC50 at 24 h
COc1ccc2c(c1)[C@]13CCCC[C@@H]1[C@H](C2)N(C)CC3 [Dextromethorphan hydrobromide monohydrate] | > 50 µM

same assay, conditions: rat, gh3-tre-luc cells, AC50 (uM) modified / 1000, Tox21_110001=Tox21_111807; viability, 1 nM T3 present, 24 h

SMILES | CC50 at 24 h
C[C@@H](Cc1ccccc1)N(C)C [Dimetamfetamine] | > 50 µM

same assay, conditions: rat, gh3-tre-luc cells, AC50 (uM) modified / 1000, Tox21_110001=Tox21_112860; viability, 1 nM T3 present, 24 h

SMILES | CC50 at 24 h
CCC(=O)O[C@](Cc1ccccc1)(c1ccccc1)[C@H](C)CN(C)C [(2S,3R)-(+)-4-(Dimethylamino)-3-methyl-1,2-diphenyl-2-butanol propionate hydrochloride] | 30.1 µM

same assay, conditions: rat, gh3-tre-luc cells, AC50 (uM) modified / 1000, Tox21_110001=Tox21_113313; viability, 1 nM T3 present, 24 h

SMILES | CC50 at 24 h
O=C(O)CCCCCCNC1c2ccccc2CCc2ccccc21 [Amineptine] | > 50 µM

same assay, conditions: rat, gh3-tre-luc cells, AC50 (uM) modified / 1000, Tox21_110001=Tox21_200640; viability, 1 nM T3 present, 24 h

SMILES | CC50 at 24 h
C=C(Cl)CCl [2,3-Dichloro-1-propene] | > 90 µM

same assay, conditions: rat, gh3-tre-luc cells, AC50 (uM) modified / 1000, Tox21_110001=Tox21_202896; viability, 1 nM T3 present, 24 h

SMILES | CC50 at 24 h
O=C/C=C/c1ccco1 [(E)-3-(2-Furyl)acrolein] | > 90 µM

same assay, conditions: rat, gh3-tre-luc cells, AC50 (uM) modified / 1000, Tox21_110001=Tox21_301160; viability, 1 nM T3 present, 24 h

SMILES | CC50 at 24 h
CCOP(=S)(OCC)Oc1ccc(Cl)cc1Cl [Dichlofenthion] | > 90 µM

same assay, conditions: rat, gh3-tre-luc cells, AC50 (uM) modified / 1000, Tox21_110001=Tox21_301548; viability, 1 nM T3 present, 24 h

SMILES | CC50 at 24 h
CCCCCCCc1ccc(O)cc1 [4-Heptylphenol] | > 90 µM
